Literature values, collected in patent US20260076921A1, “Transdermal Pharmaceutical Formulations for the Treatment of Multiple Sclerosis” (Pike Therapeutics Inc., priority 2020, published 2026).
“And” between values parts separate entries of the source, which are not always exact repeats. Equal values may be shown once.

Experiments:
[1] = 6.2 mg/day dose
[2] = literature ranges

## CCCCC/C=C\C/C=C\C/C=C\C/C=C\CCCC(=O)N[C@H](C)CO [Methanandamide]
CB1
  Ki: 17.9 nM

## CCCCCn1cc(C(=O)c2ccc(Cl)c3ccccc23)c2ccccc21 [JWH-398]
CB1
  Ki: 2.3 nM

## CCCCCn1cc(C(=O)c2cccc3cccc(Br)c23)c2ccccc21 [JWH-424]
CB1
  Ki: 20.9 nM

## C=C(C)[C@@H]1CCC(C)=C[C@H]1c1c(O)cc(CCCCC)cc1O [CBD, 2-[(1R,6R)-6-isopropenyl-3-methylcyclohex-2-en-1-yl]-5-pentylbenzene-1,3-diol]
[1]
  effect on knee-joint swelling: very effective to reduce knee-joint swelling
[2]
  Oral bioavailability: 13-19% and 5-6%
